Measurements taken from patent US10829478B2, “5-[3-[piperazin-1-yl]-3-oxo-propyl]-imidazolidine-2,4-dione derivatives as ADAMTS 4 and 5 inhibitors for treating e.g. osteoarthritis” (Galapagos NV, priority 2016, dated 2020).
Like-named read-outs stand apart in the source and are kept apart here.

Key:
human ADAMTS4 = human ADAMTS4 (Homo sapiens (Human), UniProt O75173); assay: hADAMTS-4 TBIS-1 cleavage assay, Protocol 2; format: biochemical
rnADAMTS-5 (1-564-6H) = rnADAMTS-5 (1-564-6H) (Rattus norvegicus (Rat), UniProt Q6TY19); assay: Rat ADAMTS-5 TBIS-1 cleavage assay; format: biochemical; conditions: 120 min at 37° C.; read-out: Rat ADAMTS-5 potency IC50
human ADAMTS-5 = human ADAMTS-5 (Homo sapiens (Human), UniProt Q9UNA0); assay: hADAMTS-5 TBIS-1 cleavage assay, Protocol 3; format: biochemical; conditions: 90 min at 37° C., read-out: hADAMTS-5 potency IC50
Experimental: The reaction is initiated by adding to the assay plate TBIS-1 (10 μL, 4.5 μM, Anaspec) in the same buffer.
Finally, the fluorescence is read on the Envision (Perkin Elmer) after an incubation of 90 min at 37° C. (Excitation 485 nm, emission 530).

human ADAMTS6 = human ADAMTS6 (Homo sapiens (Human), UniProt Q9UKP5); assay: hADAMTS-6 fluorescent based protease assay (520 MMP FRET substrate XII); format: biochemical; conditions: 37° C. for 2 h; read-out: hADAMTS-6 potency IC50
Procedure, shortened: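 ADAMTS6 (0.73 nM final) in 25 mM Tris pH 8.0, 0.05% CHAPS, 2.5 mM CaCl2 with compound dilution series (top 20 μM, 1/5 steps). Reaction started with 520 MMP FRET Substrate XII, incubated 2 h at 37 °C. Substrate cleavage read by fluorescence ex485/em530; IC50 determined.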

human MMP13 = human MMP13 (Homo sapiens (Human), UniProt P45452); assay: hMMP13 assay, Protocol 1 (390 MMP FRET Substrate I, Chemicon enzyme); format: biochemical; conditions: Protocol 1, human MMP13 (Chemicon), read-out: hMMP-13 potency IC50
Experimental: Human MMP13 is preactivated by incubated the enzyme in the same buffer complemented with 1 mM freshly prepared p-Aminophenylmercuric acetate (AMPA) for 1 h at 37° C.

human MMP14 = human MMP14 (Homo sapiens (Human), UniProt P50281); assay: hMMP14 assay (390 MMP FRET Substrate I); format: biochemical; conditions: human MMP14 (Biomol), read-out: hMMP-14 potency IC50
Experimental: The basis for the assay is the cleavage of the substrate 390 MMP FRET Substrate I (Anaspec Cat #AS-27076) by human MMP14 (Biomol, Cat #SE-259).
The reaction is initiated by adding to the assay plate 390 MMP FRET Substrate I (10 μL, 2.5 μM) in the same buffer.
Finally, the fluorescence is read on the Envision (Perkin Elmer) after an incubation of 60 min at room temperature (Excitation 485 nm, Emission 530).

human TACE = human TACE (Homo sapiens (Human), UniProt P78536); assay: biochemical
Experimental: Finally, the fluorescence is read on the Envision (Perkin Elmer) after an incubation of 75 min at room temperature (Excitation 485 nm, Emission 530).

[1] = Protocol 2, 180 min at 37° C., read-out: ADAMTS4 potency IC50

human TACE, sequence (P78536 215-671): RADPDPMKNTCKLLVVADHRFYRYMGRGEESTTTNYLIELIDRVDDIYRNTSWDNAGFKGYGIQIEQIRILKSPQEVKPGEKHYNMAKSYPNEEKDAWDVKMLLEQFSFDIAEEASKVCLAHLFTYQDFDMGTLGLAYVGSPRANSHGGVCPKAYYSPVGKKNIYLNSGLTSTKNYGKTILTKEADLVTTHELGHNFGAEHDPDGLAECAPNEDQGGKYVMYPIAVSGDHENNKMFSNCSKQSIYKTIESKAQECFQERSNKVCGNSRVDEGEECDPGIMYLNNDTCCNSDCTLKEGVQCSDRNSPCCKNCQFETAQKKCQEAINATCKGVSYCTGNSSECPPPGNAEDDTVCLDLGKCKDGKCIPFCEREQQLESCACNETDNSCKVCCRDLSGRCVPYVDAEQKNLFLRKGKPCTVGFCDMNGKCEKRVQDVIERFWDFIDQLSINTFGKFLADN
human ADAMTS-5, sequence (Q9UNA0 262-930): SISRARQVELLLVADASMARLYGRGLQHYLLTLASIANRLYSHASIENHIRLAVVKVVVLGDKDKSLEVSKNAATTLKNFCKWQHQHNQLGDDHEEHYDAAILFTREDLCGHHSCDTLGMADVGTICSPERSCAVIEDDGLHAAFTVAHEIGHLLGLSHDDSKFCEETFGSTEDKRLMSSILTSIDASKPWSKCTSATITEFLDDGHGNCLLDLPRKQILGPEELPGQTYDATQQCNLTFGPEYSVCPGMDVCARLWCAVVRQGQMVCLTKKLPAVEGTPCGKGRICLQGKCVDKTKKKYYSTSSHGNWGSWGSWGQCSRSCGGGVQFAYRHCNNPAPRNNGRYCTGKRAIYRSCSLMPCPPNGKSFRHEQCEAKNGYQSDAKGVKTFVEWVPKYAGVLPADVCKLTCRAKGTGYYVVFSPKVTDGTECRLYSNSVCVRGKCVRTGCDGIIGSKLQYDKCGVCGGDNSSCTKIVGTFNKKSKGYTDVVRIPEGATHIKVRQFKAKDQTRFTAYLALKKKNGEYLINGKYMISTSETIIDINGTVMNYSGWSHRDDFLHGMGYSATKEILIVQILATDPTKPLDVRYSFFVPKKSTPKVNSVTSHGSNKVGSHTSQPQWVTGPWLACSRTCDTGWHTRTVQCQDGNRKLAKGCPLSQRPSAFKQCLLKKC
rnADAMTS-5 (1-564-6H), sequence (Q6TY19 entry or part of it): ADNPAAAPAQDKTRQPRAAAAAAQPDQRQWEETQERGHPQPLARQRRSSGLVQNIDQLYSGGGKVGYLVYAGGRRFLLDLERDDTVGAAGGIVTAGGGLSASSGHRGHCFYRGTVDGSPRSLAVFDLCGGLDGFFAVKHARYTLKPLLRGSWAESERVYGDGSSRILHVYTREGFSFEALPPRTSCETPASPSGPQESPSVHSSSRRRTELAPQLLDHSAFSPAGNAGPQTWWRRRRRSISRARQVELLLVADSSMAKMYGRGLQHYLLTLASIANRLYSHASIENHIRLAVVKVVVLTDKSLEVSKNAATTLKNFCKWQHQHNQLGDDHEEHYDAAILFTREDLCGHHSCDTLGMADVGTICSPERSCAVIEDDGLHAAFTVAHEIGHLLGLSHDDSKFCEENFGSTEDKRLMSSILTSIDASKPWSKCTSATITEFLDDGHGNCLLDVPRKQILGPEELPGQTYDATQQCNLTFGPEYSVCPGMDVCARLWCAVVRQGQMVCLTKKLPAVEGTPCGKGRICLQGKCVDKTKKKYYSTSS
human ADAMTS4, sequence (O75173 213-837): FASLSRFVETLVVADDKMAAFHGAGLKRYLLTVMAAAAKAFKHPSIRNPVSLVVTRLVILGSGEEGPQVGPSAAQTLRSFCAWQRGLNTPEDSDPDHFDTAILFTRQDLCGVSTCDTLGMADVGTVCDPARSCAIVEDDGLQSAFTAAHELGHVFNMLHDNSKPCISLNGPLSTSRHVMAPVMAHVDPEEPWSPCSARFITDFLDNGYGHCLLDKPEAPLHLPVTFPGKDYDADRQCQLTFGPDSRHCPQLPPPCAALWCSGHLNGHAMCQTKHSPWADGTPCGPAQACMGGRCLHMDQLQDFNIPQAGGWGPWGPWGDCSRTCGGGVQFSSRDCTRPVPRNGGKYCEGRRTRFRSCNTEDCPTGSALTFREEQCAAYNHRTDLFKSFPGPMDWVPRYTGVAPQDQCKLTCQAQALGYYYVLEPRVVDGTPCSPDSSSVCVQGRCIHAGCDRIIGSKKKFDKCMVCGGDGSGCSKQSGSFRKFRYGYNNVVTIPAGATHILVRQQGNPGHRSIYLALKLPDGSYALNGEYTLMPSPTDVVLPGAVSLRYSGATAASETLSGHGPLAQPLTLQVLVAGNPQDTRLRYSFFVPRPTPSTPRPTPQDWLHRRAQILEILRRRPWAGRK
human ADAMTS6, sequence (Q9UKP5 other isoform, or with tags, fused parts or gaps): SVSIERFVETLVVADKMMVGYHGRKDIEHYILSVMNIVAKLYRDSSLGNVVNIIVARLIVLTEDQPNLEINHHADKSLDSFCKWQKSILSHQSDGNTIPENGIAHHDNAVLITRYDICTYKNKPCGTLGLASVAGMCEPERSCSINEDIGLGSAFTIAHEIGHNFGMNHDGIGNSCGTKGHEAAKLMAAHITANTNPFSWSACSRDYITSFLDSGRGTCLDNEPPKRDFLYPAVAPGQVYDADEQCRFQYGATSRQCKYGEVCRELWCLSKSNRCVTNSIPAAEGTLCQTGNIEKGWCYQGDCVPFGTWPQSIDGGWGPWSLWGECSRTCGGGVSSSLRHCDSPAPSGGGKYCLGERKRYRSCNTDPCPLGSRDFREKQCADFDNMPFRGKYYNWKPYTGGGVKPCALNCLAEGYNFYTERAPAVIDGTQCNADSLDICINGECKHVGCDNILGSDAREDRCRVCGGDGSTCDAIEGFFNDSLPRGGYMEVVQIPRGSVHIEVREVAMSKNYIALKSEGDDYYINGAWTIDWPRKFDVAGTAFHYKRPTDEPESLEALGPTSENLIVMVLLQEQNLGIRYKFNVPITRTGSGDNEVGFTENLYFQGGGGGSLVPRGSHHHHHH

SMILES | IC50 (human ADAMTS4) [nM] | IC50 (rnADAMTS-5 (1-564-6H)) [nM] | IC50 (human ADAMTS-5) [nM] | IC50 (human ADAMTS6) [nM] | IC50 (human MMP13) [nM] | IC50 (human MMP14) [nM] | IC50 (human TACE) [nM] | IC50 (human ADAMTS4; [1]) [nM]
COc1cc(N2CCN(C(=O)[C@@H](C)C[C@@]3(C)NC(=O)NC3=O)C[C@@H]2C)cc(F)c1F (mixture of isomers) [Cpd 42, 5-[3-[(3S)-4-(3,4-difluoro-5-methoxy-phenyl)-3-methyl-piperazin-1-yl]-2-methyl-3-oxo-propyl]-5-methyl-imidazolidine-2,4-dione] | 25 to 50 | 0.001 to 25 | 0.001 to 25 | 0.001 to 25 | > 100 | > 100 | > 100 | –
COc1cc(N2CCN(C(=O)[C@@H](C)C[C@@]3(C)NC(=O)NC3=O)C[C@@H]2C)ccc1Cl (stereo in doubt) [Cpd 41, 5-[3-[4-(4-chloro-3-methoxy-phenyl)-3-methyl-piperazin-1-yl]-2-methyl-3-oxo-propyl]-5-methyl-imidazolidine-2,4-dione] | – | 0.001 to 25 | 25 to 50 | 0.001 to 25 | > 100 | > 100 | > 100 | > 100
COc1cc(N2CCN(C(=O)[C@@H](C)C[C@@]3(C)NC(=O)NC3=O)CC2)cc(F)c1F (stereo in doubt) [Cpd 43, 5-[3-[4-(3,4-difluoro-5-methoxy-phenyl)piperazin-1-yl]-2-methyl-3-oxo-propyl]-5-methyl-imidazolidine-2,4-dione] | 25 to 50 | 0.001 to 25 | 0.001 to 25 | 0.001 to 25 | > 100 | > 100 | > 100 | –
COc1cc(N2CCN(C(=O)CCC3(C)NC(=O)NC3=O)C[C@@H]2C)ccc1Cl (stereo partly drawn) [Cpd 24, 5-[3-[(3S)-4-(4-chloro-3-methoxy-phenyl)-3-methyl-piperazin-1-yl]-3-oxo-propyl]-5-methyl-imidazolidine-2,4-dione] | – | 50 to 100 | 25 to 50 | 0.001 to 25 | > 100 | > 100 | > 100 | > 100
COc1cc(N2CCN(C(=O)[C@@H](C)C[C@@]3(C4CC4)NC(=O)NC3=O)C[C@@H]2C)cc(F)c1F [Cpd 29, 5-cyclopropyl-5-[(2S)-3-[(3S)-4-(3,4-difluoro-5-methoxy-phenyl)-3-methyl-piperazin-1-yl]-2-methyl-3-oxo-propyl]imidazolidine-2,4-dione] | 25 to 50 | 25 to 50 | 25 to 50 | 0.001 to 25 | > 100 | – | > 100 | –
COc1cc(N2CCN(C(=O)CCC3(C)NC(=O)NC3=O)C[C@@H]2C)cc(OC)c1Cl (some centres unmarked) [Cpd 30, 5-[3-[(3 S)-4-(4-chloro-3,5-dimethoxy-phenyl)-3-methyl-piperazin-1-yl]-3-oxo-propyl]-5-methyl-imidazolidine-2,4-dione] | – | > 100 | > 100 | 0.001 to 25 | > 100 | – | > 100 | > 100
COc1cc(N2CCN(C(=O)CCC3(C)NC(=O)NC3=O)CC2)cc(OC)c1Cl (centres unmarked) [Cpd 31, 5-[3-[4-(4-chloro-3,5-dimethoxy-phenyl)piperazin-1-yl]-3-oxo-propyl]-5-methyl-imidazolidine-2,4-dione] | – | > 100 | > 100 | 0.001 to 25 | > 100 | – | > 100 | > 100
COc1cc(N2CCN(C(=O)CCC3(C)NC(=O)NC3=O)CC2)c(C)cc1Cl (centres unmarked) [Cpd 34, 5-[3-[4-(4-chloro-5-methoxy-2-methyl-phenyl)piperazin-1-yl]-3-oxo-propyl]-5-methyl-imidazolidine-2,4-dione] | – | > 100 | > 100 | 25 to 50 | > 100 | – | > 100 | > 100
COc1cc(N2CCN(C(=O)CCC3(C)NC(=O)NC3=O)C[C@@H]2C)c(C)cc1Cl (some centres unmarked) [Cpd 36, 5-[3-[(3 S)-4-(4-chloro-5-methoxy-2-methyl-phenyl)-3-methyl-piperazin-1-yl]-3-oxo-propyl]-5-methyl-imidazolidine-2,4-dione] | – | > 100 | > 100 | 25 to 50 | > 100 | – | > 100 | > 100
COc1cc(N2CCN(C(=O)CC[C@@]3(C4CC4)NC(=O)NC3=O)C[C@@H]2C)cc(F)c1F [Cpd 37, (5S)-5-cyclopropyl-5-[3-[(3 S)-4-(3,4-difluoro-5-methoxy-phenyl)-3-methyl-piperazin-1-yl]-3-oxo-propyl]imidazolidine-2,4-dione] | 25 to 50 | 0.001 to 25 | 0.001 to 25 | 0.001 to 25 | > 100 | > 100 | > 100 | –
COc1cc(N2CCN(C(=O)CCC3(C)NC(=O)NC3=O)CC2)cc(F)c1Cl (centres unmarked) [Cpd 38, 5-[3-[4-(4-chloro-3-fluoro-5-methoxy-phenyl)piperazin-1-yl]-3-oxo-propyl]-5-methyl-imidazolidine-2,4-dione] | – | 50 to 100 | > 100 | 0.001 to 25 | > 100 | – | > 100 | > 100
COc1cc(N2CCN(C(=O)CCC3(C)NC(=O)NC3=O)C[C@@H]2C)cc(F)c1Cl (stereo partly drawn) [Cpd 39, 5-[3-[(3S)-4-(4-chloro-3-fluoro-5-methoxy-phenyl)-3-methyl-piperazin-1-yl]-3-oxo-propyl]-5-methyl-imidazolidine-2,4-dione] | – | 50 to 100 | 50 to 100 | 0.001 to 25 | > 100 | – | > 100 | > 100
COc1cc(N2CCN(C(=O)CC[C@H]3NC(=O)NC3=O)C[C@@H]2C)cc(F)c1F [Cpd 129, (5R)-5-[3-[(3S)-4-(3,4-difluoro-5-methoxy-phenyl)-3-methyl-piperazin-1-yl]-3-oxo-propyl]imidazolidine-2,4-dione] | – | > 100 | > 100 | 0.001 to 25 | > 100 | – | > 100 | > 100
COc1cc(OC)cc(N2CCN(C(=O)CC[C@H]3NC(=O)NC3=O)C[C@@H]2C)c1 [Cpd 132, (5R)-5-[3-[(3 S)-4-(3,5-dimethoxyphenyl)-3-methyl-piperazin-1-yl]-3-oxo-propyl]imidazolidine-2,4-dione] | – | > 100 | > 100 | 25 to 50 | > 100 | – | > 100 | > 100
COc1cc(N2CCN(C(=O)CC[C@H]3NC(=O)NC3=O)C[C@@H]2C)ccc1Cl [Cpd 133, (5R)-5-[3-[(3 S)-4-(4-chloro-3-methoxy-phenyl)-3-methyl-piperazin-1-yl]-3-oxo-propyl]imidazolidine-2,4-dione] | – | > 100 | > 100 | 0.001 to 25 | > 100 | – | > 100 | > 100
COc1cc(N2CCN(C(=O)CC[C@H]3NC(=O)NC3=O)CC2)cc(OC)c1Cl [Cpd 135, (5R)-5-[3-[4-(4-chloro-3,5-dimethoxy-phenyl)piperazin-1-yl]-3-oxo-propyl]imidazolidine-2,4-dione] | – | > 100 | > 100 | 0.001 to 25 | > 100 | – | > 100 | > 100
COc1cc(N2CCN(C(=O)CC[C@H]3NC(=O)NC3=O)CC2)c(C)cc1Cl [Cpd 138, (5R)-5-[3-[4-(4-chloro-5-methoxy-2-methyl-phenyl)piperazin-1-yl]-3-oxo-propyl]imidazolidine-2,4-dione] | – | > 100 | > 100 | > 100 | > 100 | – | > 100 | > 100
COc1cc(N2CCN(C(=O)CC[C@H]3NC(=O)NC3=O)C[C@@H]2C)cc(OC)c1Cl [Cpd 139, (5R)-5-[3-[(3 S)-4-(4-chloro-3,5-dimethoxy-phenyl)-3-methyl-piperazin-1-yl]-3-oxo-propyl]imidazolidine-2,4-dione] | – | 50 to 100 | > 100 | 0.001 to 25 | > 100 | – | > 100 | > 100
COc1cc(N2CCN(C(=O)CC[C@H]3NC(=O)NC3=O)C[C@@H]2C)c(C)cc1Cl [Cpd 142, (5R)-5-[3-[(3S)-4-(4-chloro-5-methoxy-2-methyl-phenyl)-3-methyl-piperazin-1-yl]-3-oxo-propyl]imidazolidine-2,4-dione] | – | > 100 | > 100 | 50 to 100 | > 100 | – | > 100 | > 100
COc1cc(N2CCN(C(=O)CC[C@H]3NC(=O)NC3=O)C[C@@H]2C)cc(F)c1Cl [Cpd 144, (5R)-5-[3-[(3 S)-4-(4-chloro-3-fluoro-5-methoxy-phenyl)-3-methyl-piperazin-1-yl]-3-oxo-propyl]imidazolidine-2,4-dione] | – | 50 to 100 | 50 to 100 | 0.001 to 25 | > 100 | – | > 100 | > 100
